Results from US20110046070A1, “GENE EXPRESSION INHIBITOR SELECTIVE FOR MATRIX METALLOPROTEINASE-9 GENE” (priority 2008, published 2011).

Legend:
[1] = system: human breast cancer MDA-MB-231 cells; assay: Wound-healing migration assay, MDA-MB-231; format: cell-based; conditions: 48 hours after the damage, various concentrations, vs DMSO
Experimental: A human breast cancer MDA-MB-231 cell strain was used. The cells were cultured at 37° C. in a humid environment containing 5% CO^2 in an RPMI1640 medium (Sigma-Aldrich Corp., St. Louis, Mo., USA) supplemented with 100 μg/ml streptomycin, 100 units/ml penicillin and 10% fetal bovine serum (FBS) (Sigma-Aldrich Corp.). Human uterine cervix cancer HeLa cells were cultured in a Dulbecco's modified Eagle medium (DMEM, Invitrogen Life Technologies, Corp., Carlsbad, Calif.) containing 10% FBS and 2 mM L-glutamine.
To assay cellular migration in the process of wound healing, 3×10^5 cells were inoculated to each well of an 8-well chamber slide, and the cell layer was damaged using a plastic micropipette when the cells reached confluence. The medium and debris were removed by suction, and 100 μl of a fresh medium containing various polyamides was replaced therefor. 48 hours after the damage, the cells were fixed with Diff-Quik solution (SYSMEX INTERNATIONAL REAGENTS CO., LTD., Kobe, Japan), then stained, and photographed using a phase-contrast microscope.

HeLa cells = assay: Invasion assay into matrigel, HeLa; format: cell-based, human; conditions: various concentrations
Experimental: Cell invasion assay was conducted using a 24-well cell culture BioCoat matrigel invasion chamber (BD Biosciences, Discovery Labware, Bedford, Mass., USA). MDA-MB-231 cells (1×10^3 cells/well) or HeLa cells (1×10^3 cells/well) were suspended in an RPMI1640 or DMEM medium containing 0.1% FBS and added to the upper chamber. An RPMI1640 or DMEM medium containing 5% FBS was added to the lower chamber. Then, the cells were cultured at 37° C. for 22 hours in a 5% CO2 environment. Noninvasive cells remaining on the membrane were wiped off using a cotton swab. Invasion cells were fixed and stained with a Diff-Quik kit. The number of cells invading the membrane was determined in mean±standard deviation from a total of 3 membranes by counting in 10 fields of view per membrane using an optical microscope (200× magnification).

MDA-MB-231 cells = assay: Growth inhibition assay, MDA-MB-231; format: cell-based, human; conditions: MDA-MB-231, 0 μM to 30 μM, 72 hours, WST-8
Experimental: Cell growth inhibition test was conducted using MDA-MB-231 and HeLa cells. The HeLa cells were inoculated at a concentration of 2500 cells/well to a 96-well microtiter plate and incubated for 24 hours in 100 μl of Dulbecco's modified Eagle medium (DMEM) containing 10% fetal bovine serum (Invitrogen). Then, after medium replacement, the cells were cultured for 72 hours in a medium supplemented with 10% fetal bovine serum containing 0 μM to 30 μM (0 μM, 0.3 μM, 1 μM, 3 μM, 10 μM and 30 μM) polyamide HMMP9NFκβ, and 10 μl of live cell counting reagent SF (Nacalai Tesque, Inc.) was added thereto, followed by 2-hour color reaction. Absorbance was measured at 450 nm using an ARVO microtiter plate reader. This experiment was conducted by modified MTT assay (WST-8 ™: Nacalai Tesque, Inc.) using water-soluble formazan.

[2] = system: MMP-9 protein in MDA-MB-231 cells; assay: Western blotting analysis (protein assay); format: cell-based, human; conditions: MDA-MB-231, 48 hours, various concentrations, vs DMSO control
Experimental: MDA-MB-231 cells were treated with the polyamide of the present invention at various concentrations. 48 hours after the treatment, the cells were collected, and the total cell lysate was prepared into an extraction buffer containing a protease inhibition cocktail (Boehringer Ingelheim GmbH, Germany) containing 50 mM Tris-HCl, 150 mM NaCl, 10 mM EDTA and 1% Triton-X. Homogenates were centrifuged at 15,000×g at 4° C. for 10 minutes. The supernatants were collected, and protein concentrations were measured. The protein sample (10 μg) was electrophoresed on NuPAGE+™ 10% Bis-Tris gel (Invitrogen Life Technologies, Corp.) and transferred to a PVDF (polyvinylidene difluoride) membrane (Millipore, Bedford, Mass.). The PVDF membrane was incubated overnight with rabbit anti-MMP-9 polyclonal antibodies (Calbiochem (registered trademark) Biosciences, Inc. La Jolla, Calif.) (1:500) obtained from Calbiochem (registered trademark). The PVDF membrane was washed three times with a Tris buffer containing 0.2% Tween 20. The immunoconjugated proteins were identified through reaction with peroxidase-conjugated goat antibodies against rabbit IgG (MP Biomedicals, Inc.) and subsequently amplified by chemiluminescence detection (Amersham, Piscataway, N.J.).

[3] = system: double-stranded DNA of the region from −605 to −599 containing the NFκβ binding site of the human matrix metalloproteinase-9 promoter; assay: Gel shift assay (EMSA), NFκβ site oligonucleotide; conditions: 10 μM polyamide, 0.6 μM fluorescently labeled double-stranded DNA, 37° C., 1 hour
Experimental: Oligonucleotides were synthesized and annealed to form 2 kinds of double-stranded oligonucleotides corresponding to the promoter base pairs against HMMP9AP1 and HMMP9NFκβ. One single-stranded oligonucleotide was labeled with FITC and hybridized with another single-stranded oligonucleotide as a complementary sequence to prepare double-stranded DNA. Specifically, nucleotides having the following nucleotide sequences were prepared: HMMP9AP1 (match) sense primer (5′[…]) (SEQ ID NO: 8) corresponding to the region from −77 to −70 containing the AP-1 binding site; this sequence plus 2-base mutation, i.e., HMMP9AP1 oligo DNA (mismatch 1) sense primer (5′[…]) (SEQ ID NO: 9); HMMP9NFκβ (match) sense primer (5′[…]) (SEQ ID NO: 10) containing the region from −605 to −599 containing the NFκβ binding site; this sequence plus 2-base mutation, i.e., HMMP9NFκβ (mismatch 1) sense primer (5′[…]) (SEQ ID NO: 11); and antisense primers respectively complementary to these 4 primers. […] The obtained complexes were electrophoresed on a 20% polyacrylamide gel, and the mobilities of the fluorescently labeled double-stranded oligonucleotides were analyzed with a fluorescent image analyzer (FUJIFILM, LAS-4000, Tokyo, Japan). […]

Compound | migration of MDA-MB-231 cells [1] | invasion of HeLa cells into matrigel (HeLa cells) | number of live cells (growth inhibition) (MDA-MB-231 cells) | expression of MMP-9 protein [2] | binding to target double-stranded DNA (mobility versus lanes containing only DS) [3]
CC(=O)Nc1cn(C)c(C(=O)Nc2cc(C(=O)NCCC(=O)Nc3cn(C)c(C(=O)Nc4cc(C(=O)Nc5cc(C(=O)NCCCC(=O)Nc6cn(C)c(C(=O)Nc7cn(C)c(C(=O)Nc8cc(C(=O)NCCC(=O)Nc9cn(C)c(C(=O)Nc%10cc(C(=O)NCCC(=O)NCCCN(C)C)n(C)c%10)n9)n(C)c8)n7)n6)n(C)c5)n(C)c4)n3)n(C)c2)n1 [HMMP9AP1] | inhibit the migration of MDA-MB-231 cells in a concentration-dependent manner | inhibited the invasion activities | decreased the number of live cells | remarkably inhibited | –
CC(=O)Nc1cc(C(=O)Nc2cc(C(=O)NCCC(=O)Nc3cc(C(=O)Nc4cc(C(=O)NCCCC(=O)Nc5cn(C)c(C(=O)Nc6cn(C)c(C(=O)NCCC(=O)Nc7cc(C(=O)Nc8cc(C(=O)NCCC(=O)NCCCN(C)C)n(C)c8)n(C)c7)n6)n5)n(C)c4)n(C)c3)n(C)c2)n(C)c1 [HMMP9NFκβ] | inhibit the migration of MDA-MB-231 cells in a concentration-dependent manner | invasion into matrigel decreases in an HMMP9NFκβ concentration-dependent manner | decreased the number of live cells in a concentration-dependent manner | decreased in an HMMP9NFκβ concentration-dependent manner | lower mobility
